Measurements published in patent US12077503B2, “Substituted cyclic amides and their use as herbicides” (FMC CORPORATION, priority 2015, dated 2024).

Key:
Assay type in all cases: in vivo
[1] = tested on: barnyardgrass (Echinochloa crus-galli); assay: Test G Pre-Emergence Protocol; settings: Echinochloa crus-galli, pre-emergence, 312 h, evaluated after 13 days
In short: (§1)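 Pots of seeds in standard soil were grown for one day in a glasshouse (24/16 °C day/night, 14 h light, 65% humidity), then sprayed with compound in acetone/water 50:50 with 0.5% Tween 20 at 15.625, 62.5 or 250 g/ha. Damage was scored after 13 days on a 0 (none) to 100 (total) scale.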

corn (Zea mays) [2] = assay: Test G Pre-Emergence Protocol; settings: Zea mays, pre-emergence, 312 h, evaluated after 13 days
In short: as §1

[3] = tested on: giant foxtail (Setaria faberi); assay: Test G Pre-Emergence Protocol; settings: Setaria faberi, pre-emergence, 312 h, evaluated after 13 days
In short: as §1

[4] = tested on: ivy-leaved morning glory (Ipomoea hederacea); assay: Test G Pre-Emergence Protocol; settings: Ipomoea, pre-emergence, 312 h, evaluated after 13 days
In short: as §1

[5] = tested on: redroot pigweed (Amaranthus retroflexus); assay: Test G Pre-Emergence Protocol; settings: Amaranthus retroflexus, pre-emergence, 312 h, evaluated after 13 days
In short: as §1

[6] = tested on: velvetleaf (Abutilon theophrasti); assay: Test G Pre-Emergence Protocol; settings: Abutilon theophrasti, pre-emergence, 312 h, evaluated after 13 days
In short: as §1

[7] = tested on: barnyardgrass (Echinochloa crus-galli); assay: Test G Post-Emergence Protocol; settings: Echinochloa crus-galli, post-emergence, 312 h
In short: (§2)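 Damage was rated 13 days after treatment from 0 (none) to 100 (plant killed). Compound was applied as a spray at 15.625, 62.5 or 250 g/ha in 50:50 acetone/water containing 0.5% Tween 20, onto 8-day-old potted plants kept in a glasshouse (24/16 °C, 14 h light, 65% humidity).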

corn (Zea mays) [8] = assay: Test G Post-Emergence Protocol; settings: Zea mays, post-emergence, 312 h
In short: as §2

[9] = tested on: giant foxtail (Setaria faberi); assay: Test G Post-Emergence Protocol; settings: Setaria faberi, post-emergence, 312 h
In short: as §2

[10] = tested on: ivy-leaved morning glory (Ipomoea hederacea); assay: Test G Post-Emergence Protocol; settings: Ipomoea, post-emergence, 312 h
In short: as §2

[11] = tested on: redroot pigweed (Amaranthus retroflexus); assay: Test G Post-Emergence Protocol; settings: Amaranthus retroflexus, post-emergence, 312 h
In short: as §2

[12] = tested on: velvetleaf (Abutilon theophrasti); assay: Test G Post-Emergence Protocol; settings: Abutilon theophrasti, post-emergence, 312 h
In short: as §2

Structure (SMILES): CN1C[C@@H](c2ccc(C(F)(F)F)cc2)[C@H](C(=O)Nc2ccc(F)c(F)c2Cl)C1=O (racemic) [Compound 1627]
- pest or weed control at 15.625 g/ha ([1]; 15.625 g ai/ha, read-out: Barnyard grass damage rating (100=total damage to plant; 0=no damage to plant)): 0%
- pest or weed control at 62.5 g/ha ([1]; 62.5 g ai/ha, 100=total damage to plant, 0=no damage to plant, read-out: plant damage rating, Barnyardgrass): 40%
- pest or weed control at 250 g/ha ([1]; 250 g ai/ha, read-out: Barnyardgrass damage rating (100=total damage to plant; 0=no damage to plant)): 80%
- plant injury at 15.625 g/ha (corn (Zea mays) [2]; 15.625 g ai/ha, read-out: Corn damage rating (100=total damage to plant; 0=no damage to plant)): 0%
- plant injury at 62.5 g/ha (corn (Zea mays) [2]; 62.5 g ai/ha, 100=total damage to plant, 0=no damage to plant, read-out: plant damage rating, Corn): 10%
- plant injury at 250 g/ha (corn (Zea mays) [2]; 250 g ai/ha, read-out: Corn damage rating (100=total damage to plant; 0=no damage to plant)): 70%
- pest or weed control at 15.625 g/ha ([3]; 15.625 g ai/ha, read-out: Foxtail, Giant damage rating (100=total damage to plant; 0=no damage to plant)): 70%
- pest or weed control at 62.5 g/ha ([3]; 62.5 g ai/ha, 100=total damage to plant, 0=no damage to plant, read-out: plant damage rating, Foxtail, Giant): 80%
- pest or weed control at 250 g/ha ([3]; 250 g ai/ha, read-out: Foxtail, Giant damage rating (100=total damage to plant; 0=no damage to plant)): 80%
- pest or weed control at 15.625 g/ha ([4]; 15.625 g ai/ha, read-out: Morning-glory, Ivy-leaved damage rating (100=total damage to plant; 0=no damage to plant)): 0%
- pest or weed control at 62.5 g/ha ([4]; 62.5 g ai/ha, 100=total damage to plant, 0=no damage to plant, read-out: plant damage rating, Morningglory, Ivy-leaved): 0%
- pest or weed control at 250 g/ha ([4]; 250 g ai/ha, read-out: Morningglory, Ivy-leaved damage rating (100=total damage to plant; 0=no damage to plant)): 10%
- pest or weed control at 15.625 g/ha ([5]; 15.625 g ai/ha, read-out: Pigweed, Redroot damage rating (100=total damage to plant; 0=no damage to plant)): 0%
- pest or weed control at 62.5 g/ha ([5]; 62.5 g ai/ha, 100=total damage to plant, 0=no damage to plant, read-out: plant damage rating, Pigweed, Redroot): 50%
- pest or weed control at 250 g/ha ([5]; 250 g ai/ha, read-out: Pigweed, Redroot damage rating (100=total damage to plant; 0=no damage to plant)): 60%
- pest or weed control at 15.625 g/ha ([6]; 15.625 g ai/ha, read-out: Velvetleaf damage rating (100=total damage to plant; 0=no damage to plant)): 0%
- pest or weed control at 62.5 g/ha ([6]; 62.5 g ai/ha, 100=total damage to plant, 0=no damage to plant, read-out: plant damage rating, Velvetleaf): 20%
- pest or weed control at 250 g/ha ([6]; 250 g ai/ha, read-out: Velvetleaf damage rating (100=total damage to plant; 0=no damage to plant)): 20%
- pest or weed control at 15.625 g/ha ([7]; 15.625 g ai/ha, evaluated after 13 days (100=total damage to plant; 0=no damage to plant), read-out: Barnyardgrass damage rating): 20%
- pest or weed control at 62.5 g/ha ([7]; 62.5 g ai/ha, evaluated after 13 days, read-out: Barnyardgrass damage rating (100=total damage to plant; 0=no damage to plant)): 70%
- pest or weed control at 250 g/ha ([7]; 250 g ai/ha, evaluated after 13 days, read-out: damage to plant, Barnyardgrass (100=total damage to plant; 0=no damage to plant)): 80%
- plant injury at 15.625 g/ha (corn (Zea mays) [8]; 15.625 g ai/ha, evaluated after 13 days (100=total damage to plant; 0=no damage to plant), read-out: Corn damage rating): 0%
- plant injury at 62.5 g/ha (corn (Zea mays) [8]; 62.5 g ai/ha, evaluated after 13 days, read-out: Corn damage rating (100=total damage to plant; 0=no damage to plant)): 30%
- plant injury at 250 g/ha (corn (Zea mays) [8]; 250 g ai/ha, evaluated after 13 days, read-out: damage to plant, Corn (100=total damage to plant; 0=no damage to plant)): 70%
- pest or weed control at 15.625 g/ha ([9]; 15.625 g ai/ha, evaluated after 13 days (100=total damage to plant; 0=no damage to plant), read-out: Foxtail, Giant damage rating): 70%
- pest or weed control at 62.5 g/ha ([9]; 62.5 g ai/ha, evaluated after 13 days, read-out: Foxtail, Giant damage rating (100=total damage to plant; 0=no damage to plant)): 80%
- pest or weed control at 250 g/ha ([9]; 250 g ai/ha, evaluated after 13 days, read-out: damage to plant, Foxtail, Giant (100=total damage to plant; 0=no damage to plant)): 80%
- pest or weed control at 15.625 g/ha ([10]; 15.625 g ai/ha, evaluated after 13 days (100=total damage to plant; 0=no damage to plant), read-out: Morningglory, Ivy-leaved damage rating): 60%
- pest or weed control at 62.5 g/ha ([10]; 62.5 g ai/ha, evaluated after 13 days, read-out: Morningglory, Ivy-leaved damage rating (100=total damage to plant; 0=no damage to plant)): 70%
- pest or weed control at 250 g/ha ([10]; 250 g ai/ha, evaluated after 13 days, read-out: damage to plant, Morningglory, Ivy-leaved (100=total damage to plant; 0=no damage to plant)): 70%
- pest or weed control at 15.625 g/ha ([11]; 15.625 g ai/ha, evaluated after 13 days (100=total damage to plant; 0=no damage to plant), read-out: Pigweed, Redroot damage rating): 20%
- pest or weed control at 62.5 g/ha ([11]; 62.5 g ai/ha, evaluated after 13 days, read-out: Pigweed, Redroot damage rating (100=total damage to plant; 0=no damage to plant)): 60%
- pest or weed control at 250 g/ha ([11]; 250 g ai/ha, evaluated after 13 days, read-out: damage to plant, Pigweed, Redroot (100=total damage to plant; 0=no damage to plant)): 70%
- pest or weed control at 15.625 g/ha ([12]; 15.625 g ai/ha, evaluated after 13 days (100=total damage to plant; 0=no damage to plant), read-out: Velvetleaf damage rating): 0%
- pest or weed control at 62.5 g/ha ([12]; 62.5 g ai/ha, evaluated after 13 days, read-out: Velvetleaf damage rating (100=total damage to plant; 0=no damage to plant)): 20%
- pest or weed control at 250 g/ha ([12]; 250 g ai/ha, evaluated after 13 days, read-out: damage to plant, Velvetleaf (100=total damage to plant; 0=no damage to plant)): 40%
